Reference: patent US8614327B2 (Vertex Pharmaceuticals Incorporated, priority 2004, dated 2013)

Molecular target: T1, ΔF508-CFTR (Homo sapiens, UniProt P13569, DEL508-508)
T1 construct: expressed in transfected cells
Assay: Membrane potential optical (FRET/VIPR) assay, identification of potentiator compounds
Type: cell-based
Settings: Table 3, assay not given; for % Activity: relative efficacy
Procedure, shortened: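 NIH3T3 mouse fibroblasts stably expressing ΔF508-CFTR, temperature-corrected 24 h at 27° C., read on VIPR by FRET between CC2-DMPE and DiSBAC2(3). Potentiators identified in a double-addition format, first adding chloride-free (gluconate) medium with or without compound.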

T1 sequence (P13569 with tags, fused parts or gaps DEL508-508): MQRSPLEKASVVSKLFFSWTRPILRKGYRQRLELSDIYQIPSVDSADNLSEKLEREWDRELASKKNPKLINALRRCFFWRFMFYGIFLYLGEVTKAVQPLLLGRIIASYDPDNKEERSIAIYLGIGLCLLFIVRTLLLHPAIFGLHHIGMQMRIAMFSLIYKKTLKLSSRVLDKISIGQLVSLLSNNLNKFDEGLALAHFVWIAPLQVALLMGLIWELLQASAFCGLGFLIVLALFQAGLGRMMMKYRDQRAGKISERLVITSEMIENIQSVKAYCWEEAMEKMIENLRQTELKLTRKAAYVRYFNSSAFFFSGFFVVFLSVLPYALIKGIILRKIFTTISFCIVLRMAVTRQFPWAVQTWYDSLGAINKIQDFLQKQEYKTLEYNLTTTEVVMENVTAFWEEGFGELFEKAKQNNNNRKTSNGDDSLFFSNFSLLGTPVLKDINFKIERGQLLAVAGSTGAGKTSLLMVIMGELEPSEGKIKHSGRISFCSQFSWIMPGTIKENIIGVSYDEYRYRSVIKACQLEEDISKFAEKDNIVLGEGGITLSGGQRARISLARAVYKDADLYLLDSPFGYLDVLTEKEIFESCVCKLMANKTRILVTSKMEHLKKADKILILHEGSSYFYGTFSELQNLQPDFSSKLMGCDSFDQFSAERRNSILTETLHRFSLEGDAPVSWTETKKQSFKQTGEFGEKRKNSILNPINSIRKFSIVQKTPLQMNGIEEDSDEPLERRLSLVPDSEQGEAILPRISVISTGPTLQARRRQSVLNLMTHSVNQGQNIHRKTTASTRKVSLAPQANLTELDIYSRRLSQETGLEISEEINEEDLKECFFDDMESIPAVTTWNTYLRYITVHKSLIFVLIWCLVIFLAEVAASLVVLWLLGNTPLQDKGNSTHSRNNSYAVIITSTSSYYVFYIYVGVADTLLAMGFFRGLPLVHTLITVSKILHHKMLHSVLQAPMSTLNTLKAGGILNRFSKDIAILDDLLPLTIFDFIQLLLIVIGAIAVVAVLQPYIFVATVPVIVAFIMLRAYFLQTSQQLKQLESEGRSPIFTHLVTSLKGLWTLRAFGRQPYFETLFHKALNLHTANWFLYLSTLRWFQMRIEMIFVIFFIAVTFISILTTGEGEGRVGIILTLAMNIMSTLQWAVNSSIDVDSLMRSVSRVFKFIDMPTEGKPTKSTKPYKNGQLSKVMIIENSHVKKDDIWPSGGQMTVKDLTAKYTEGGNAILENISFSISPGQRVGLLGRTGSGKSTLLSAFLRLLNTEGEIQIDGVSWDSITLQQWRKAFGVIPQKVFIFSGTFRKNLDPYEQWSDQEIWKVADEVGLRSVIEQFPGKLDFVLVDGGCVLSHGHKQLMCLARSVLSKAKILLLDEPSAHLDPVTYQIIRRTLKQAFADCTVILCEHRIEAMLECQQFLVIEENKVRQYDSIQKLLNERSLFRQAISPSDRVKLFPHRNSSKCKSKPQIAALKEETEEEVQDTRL

| Structure (SMILES) | EC50 | % Activity |
| --- | --- | --- |
| Cc1ccc(NC(=O)c2c[nH]c3ccccc3c2=O)cc1 [Compound 31, 4-oxo-N-(p-tolyl)-1H-quinoline-3-carboxamide] | < 10 µM | ++ (between 25% to 100%) |
| CC1(C)CNc2cc(NC(=O)c3c[nH]c4ccccc4c3=O)ccc21 [Compound 386, N-(3,3-dimethylindolin-6-yl)-4-oxo-1H-quinoline-3-carboxamide] | < 10 µM | ++ (between 25% to 100%) |
| O=C(Nc1ccccc1-c1ccc2c(c1)OCO2)c1c[nH]c2ccccc2c1=O [Compound 135, N-(2-benzo[1,3]dioxol-5-ylphenyl)-4-oxo-1H-quinoline-3-carboxamide] | < 10 µM | +++ (>100%) |
| O=C(Nc1ccc2cc[nH]c2c1)c1c(C(F)(F)F)[nH]c2ccccc2c1=O [Compound 184, N-(1H-indol-6-yl)-4-oxo-2-(trifluoromethyl)-1H-quinoline-3-carboxamide] | 25 to 60 µM | + (<25%) |
| CCc1cccc(C)c1NC(=O)c1c[nH]c2ccccc2c1=O [Compound 180, N-(2-ethyl-6-methyl-phenyl)-4-oxo-1H-quinoline-3-carboxamide] | < 10 µM | ++ (between 25% to 100%) |
| CN(C)CCS(=O)(=O)Nc1cc(NC(=O)c2c[nH]c3ccccc3c2=O)cc(C(F)(F)F)c1 [Compound 359, N-[3-(2-dimethylaminoethylsulfonylamino)-5-(trifluoromethyl)phenyl]-4-oxo-1H-quinoline-3-carboxamide] | 10 to 25 µM | ++ (between 25% to 100%) |
| O=C(Nc1ccccc1-c1nc2ccccc2[nH]1)c1c[nH]c2ccccc2c1=O [Compound 227, N-[2-(3H-benzoimidazol-2-yl)phenyl]-4-oxo-1H-quinoline-3-carboxamide] | 25 to 60 µM | + (<25%) |
| O=C(c1ccccc1)c1ccccc1NC(=O)c1c[nH]c2ccccc2c1=O [Compound 252, N-(2-benzoylphenyl)-4-oxo-1H-quinoline-3-carboxamide] | 10 to 25 µM | ++ (between 25% to 100%) |
| COc1ccc(NC(=O)c2c[nH]c3ccccc3c2=O)cn1 [Compound 162, N-(6-methoxy-3-pyridyl)-4-oxo-1H-quinoline-3-carboxamide] | 25 to 60 µM | + (<25%) |
| COC(=O)Nc1cc(NC(=O)c2c[nH]c3ccccc3c2=O)ccc1C(C)(C)C [Compound 14, [5-[(4-oxo-1H-quinolin-3-yl)carbonylamino]-2-tert-butyl-phenyl]aminoformic acid methyl ester] | < 10 µM | ++ (between 25% to 100%) |
| CC(C)c1ccc(-c2cc3cc[nH]c3cc2NC(=O)c2c[nH]c3ccccc3c2=O)cc1 [Compound 342, N-[5-(4-isopropylphenyl)-1H-indol-6-yl]-4-oxo-1H-quinoline-3-carboxamide] | < 10 µM | ++ (between 25% to 100%) |
| COc1ccc(-c2ccccc2NC(=O)c2c[nH]c3ccccc3c2=O)cc1 [Compound 305, N-[2-(4-methoxyphenyl)phenyl]-4-oxo-1H-quinoline-3-carboxamide] | < 10 µM | +++ (>100%) |
| CC(=O)c1ccccc1NC(=O)c1c[nH]c2ccccc2c1=O [Compound 365, N-(2-acetylphenyl)-4-oxo-1H-quinoline-3-carboxamide] | 10 to 25 µM | ++ (between 25% to 100%) |
| CCOC(=O)Nc1cc(NC(=O)c2c[nH]c3ccccc3c2=O)ccc1CC [Compound 298, [2-ethyl-5-[(4-oxo-1H-quinolin-3-yl)carbonylamino]phenyl]aminoformic acid ethyl ester] |  | ++ (between 25% to 100%) |
| CC(C)c1ccc(N)cc1NC(=O)c1c[nH]c2ccccc2c1=O [Compound 101, N-(5-amino-2-isopropyl-phenyl)-4-oxo-1H-quinoline-3-carboxamide] | < 10 µM | ++ (between 25% to 100%) |
| COc1ccc(NC(C)=O)cc1NC(=O)c1c[nH]c2ccccc2c1=O [Compound 250, N-(5-acetylamino-2-methoxy-phenyl)-4-oxo-1H-quinoline-3-carboxamide] | 25 to 60 µM | + (<25%) |
| CCc1ccc(NC)cc1NC(=O)c1c[nH]c2ccccc2c1=O [Compound 157, N-(2-ethyl-5-methylamino-phenyl)-4-oxo-1H-quinoline-3-carboxamide] | < 10 µM | ++ (between 25% to 100%) |
| NS(=O)(=O)c1cccc(NC(=O)c2c[nH]c3ccccc3c2=O)c1 [Compound 9, 4-oxo-N-(3-sulfamoylphenyl)-1H-quinoline-3-carboxamide] | 25 to 60 µM | + (<25%) |
| CCc1c[nH]c2cc(NC(=O)c3c[nH]c4ccccc4c3=O)ccc12 [Compound 383, N-(3-ethyl-1H-indol-6-yl)-4-oxo-1H-quinoline-3-carboxamide] | < 10 µM | ++ (between 25% to 100%) |
| O=C(Nc1ccccc1Cl)c1c[nH]c2ccccc2c1=O [Compound 330, N-(2-chlorophenyl)-4-oxo-1H-quinoline-3-carboxamide] | < 10 µM | ++ (between 25% to 100%) |
| O=C(Nc1ccccc1-c1cc(Cl)ccc1Cl)c1c[nH]c2ccccc2c1=O [Compound 213, N-[2-(2,5-dichlorophenyl)phenyl]-4-oxo-1H-quinoline-3-carboxamide] | < 10 µM | ++ (between 25% to 100%) |

Continued, values first:

| EC50 | % Activity | Structure (SMILES) |
| --- | --- | --- |
| < 10 µM | ++ (between 25% to 100%) | O=C(Nc1ccc(N2CCC2)cc1C(F)(F)F)c1c[nH]c2ccccc2c1=O [Compound 689, N-[4-azetidin-1-yl-2-(trifluoromethyl)phenyl]-4-oxo-1H-quinoline-3-carboxamide] |
| 25 to 60 µM | + (<25%) | Cc1ccc(-c2ccccc2)cc1NC(=O)c1c[nH]c2ccccc2c1=O [Compound 454, N-(2-methyl-5-phenyl-phenyl)-4-oxo-1H-quinoline-3-carboxamide] |
| < 10 µM | ++ (between 25% to 100%) | Cc1c(NC(=O)c2c[nH]c3ccccc3c2=O)cccc1C(F)(F)F [Compound 387, N-[2-methyl-3-(trifluoromethyl)phenyl]-4-oxo-1H-quinoline-3-carboxamide] |
| < 10 µM | ++ (between 25% to 100%) | O=C(Nc1ccccc1-c1ccc(OC(F)(F)F)cc1)c1c[nH]c2ccccc2c1=O [Compound 388, 4-oxo-N-[2-[4-(trifluoromethoxy)phenyl]phenyl]-1H-quinoline-3-carboxamide] |
| < 10 µM | ++ (between 25% to 100%) | CC(C)c1ccc(NC(=O)c2c[nH]c3c(F)cccc3c2=O)c(C(F)(F)F)c1 [Compound 573, 8-fluoro-N-[4-isopropyl-2-(trifluoromethyl)phenyl]-4-oxo-1H-quinoline-3-carboxamide] |
| < 10 µM | ++ (between 25% to 100%) | O=C(Nc1ccccc1)c1c[nH]c2cc(Cl)ccc2c1=O [Compound 411, 7-chloro-4-oxo-N-phenyl-1H-quinoline-3-carboxamide] |
| < 10 µM | ++ (between 25% to 100%) | Cc1cc(C(C)(C)C)c(O)cc1NC(=O)c1c[nH]c2ccccc2c1=O [Compound 518, N-(5-hydroxy-2-methyl-4-tert-butyl-phenyl)-4-oxo-1H-quinoline-3-carboxamide] |
| 10 to 25 µM | ++ (between 25% to 100%) | N#Cc1cccc(NC(=O)c2c[nH]c3ccccc3c2=O)c1 [Compound 447, N-(3-cyanophenyl)-4-oxo-1H-quinoline-3-carboxamide] |
| 10 to 25 µM | ++ (between 25% to 100%) | CC(O)c1ccc(NC(=O)c2c[nH]c3ccccc3c2=O)cc1 (stereo not shown) [Compound 450, N-[4-(1-hydroxyethyl)phenyl]-4-oxo-1H-quinoline-3-carboxamide] |
| < 10 µM | ++ (between 25% to 100%) | Cc1cccc2[nH]cc(C(=O)Nc3ccc(N4CC[C@H](F)C4)cc3C(F)(F)F)c(=O)c12 [Compound 626, (S)-N-(4-(3-fluoropyrrolidin-1-yl)-2-(trifluoromethyl)phenyl)-5-methyl-4-oxo-1,4-dihydroquinoline-3-carboxamide] |
| < 10 µM | ++ (between 25% to 100%) | Cc1ccccc1NC(=O)c1c[nH]c2ccccc2c1=O [Compound 459, N-(o-tolyl)-4-oxo-1H-quinoline-3-carboxamide] |
|  | ++ (between 25% to 100%) | CCCc1ccc(NC(=O)c2c[nH]c3ccccc3c2=O)cc1N(C)C [Compound 462, N-(3-dimethylamino-4-propyl-phenyl)-4-oxo-1H-quinoline-3-carboxamide] |
| 25 to 60 µM | + (<25%) | CC(C)(C)c1ccc(NC(=O)c2c[nH]c3ccccc3c2=O)cc1CN [Compound 390, N-[3-(Aminomethyl)-4-tert-butyl-phenyl]-4-oxo-1H-quinoline-3-carboxamide] |
| < 10 µM | ++ (between 25% to 100%) | O=C(Nc1ccc(OC(F)(F)F)cc1Cl)c1c[nH]c2ccccc2c1=O [Compound 628, N-[2-chloro-4-(trifluoromethoxy)phenyl]-4-oxo-1H-quinoline-3-carboxamide] |
| < 10 µM | ++ (between 25% to 100%) | CC(C)(C)c1ccc(NC(=O)c2c[nH]c3ccccc3c2=O)cc1F [Compound 645, N-(3-fluoro-4-tert-butyl-phenyl)-4-oxo-1H-quinoline-3-carboxamide] |
| < 10 µM | ++ (between 25% to 100%) | O=C(Nc1cc(O)c(C(F)(F)F)cc1F)c1c[nH]c2ccccc2c1=O [Compound 501, N-[2-fluoro-5-hydroxy-4-(trifluoromethyl)phenyl]-4-oxo-1H-quinoline-3-carboxamide] |
|  | ++ (between 25% to 100%) | CCc1ccc(NC(=O)c2c[nH]c3ccccc3c2=O)cc1 [Compound 463, N-(4-ethylphenyl)-4-oxo-1H-quinoline-3-carboxamide] |
